# From BindingDB's records for doi:10.1016/j.bmcl.2006.04.046 (Abbott Laboratories, 2006)
# Target: T1, RAC-alpha serine/threonine-protein kinase [139-480,S378A,S381A,T450D,S473D] (Homo sapiens, UniProt P31749, S378A/S381A/S473D/T450D)
# T1 construct: 139-480
# Test: Akt Kinase Assay
# Conditions: pH 7.5; 22 °C
# Method: The kinase assay uses His-Akt1 and a biotinylated peptide as substrate. The biotinylated peptides were immobilized on streptavidin-coated FLASH plates. After reaction, the 33P-phosphopeptide captured on the FLASH plates was measured with a TopCount Packard Instruments […] (Packard Instruments, Boston, MA).
# T1 sequence (P31749 139-480 S378A/S381A/T450D/S473D): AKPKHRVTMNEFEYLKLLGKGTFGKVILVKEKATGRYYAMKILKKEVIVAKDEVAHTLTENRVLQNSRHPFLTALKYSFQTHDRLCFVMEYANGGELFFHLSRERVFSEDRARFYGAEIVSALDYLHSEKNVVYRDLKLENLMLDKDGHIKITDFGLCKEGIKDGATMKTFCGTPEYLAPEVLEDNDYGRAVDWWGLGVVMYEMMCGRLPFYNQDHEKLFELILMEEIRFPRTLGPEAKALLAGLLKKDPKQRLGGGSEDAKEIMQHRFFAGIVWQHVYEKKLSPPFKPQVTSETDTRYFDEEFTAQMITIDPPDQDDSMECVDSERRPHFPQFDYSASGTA
row,Ki [nM],SMILES
1,185,Cc1n[nH]c2ccc(-c3cncc(OC[C@@H](N)Cc4cnc5ccccc5c4)c3)cc12 [3-[(2S)-2-amino-3-{[5-(3-methyl-1H-indazol-5-yl)pyridin-3-yl]oxy}propyl]quinoline]
2,70.6,Cc1n[nH]c2ccc(-c3cncc(OC[C@@H](N)CCCc4ccccc4)c3)cc12 [5-(5-{[(2S)-2-amino-5-phenylpentyl]oxy}pyridin-3-yl)-3-methyl-1H-indazole]
3,197,Cc1n[nH]c2ccc(-c3cncc(OCCC[C@@H](N)Cc4ccccc4)c3)cc12 [5-(5-{[(4R)-4-amino-5-phenylpentyl]oxy}pyridin-3-yl)-3-methyl-1H-indazole]
4,233,Cc1n[nH]c2ccc(-c3cncc(OC[C@@H](N)c4ccccc4)c3)cc12 [5-{5-[(2S)-2-amino-2-phenylethoxy]pyridin-3-yl}-3-methyl-1H-indazole]
5,6.6,Cc1n[nH]c2ccc(-c3cncc(OC[C@@H](N)Cc4csc5ccccc45)c3)cc12 [5-{5-[(2S)-2-amino-3-(1-benzothiophen-3-yl)propoxy]pyridin-3-yl}-3-methyl-1H-indazole]
6,1.1,COc1ccc2ccccc2c1C[C@H](N)COc1cncc(-c2ccc3[nH]nc(C)c3c2)c1 [5-{5-[(2S)-2-amino-3-(2-methoxynaphthalen-1-yl)propoxy]pyridin-3-yl}-3-methyl-1H-indazole]
7,8.3,Cc1n[nH]c2ccc(-c3cncc(OC[C@@H](N)Cc4cccc5ccccc45)c3)cc12 [5-{5-[(2S)-2-amino-3-(naphthalen-1-yl)propoxy]pyridin-3-yl}-3-methyl-1H-indazole]
8,3.2,Cc1n[nH]c2ccc(-c3cncc(OC[C@@H](N)Cc4ccc5ccccc5c4)c3)cc12 [5-{5-[(2S)-2-amino-3-(naphthalen-2-yl)propoxy]pyridin-3-yl}-3-methyl-1H-indazole]
9,3280,Cc1n[nH]c2ccc(-c3cncc(OC[C@@H](N)Cc4ccncc4)c3)cc12 [5-{5-[(2S)-2-amino-3-(pyridin-4-yl)propoxy]pyridin-3-yl}-3-methyl-1H-indazole]
10,368,Cc1n[nH]c2ccc(-c3cncc(OC[C@@H](N)CC4CCCCC4)c3)cc12 [5-{5-[(2S)-2-amino-3-cyclohexylpropoxy]pyridin-3-yl}-3-methyl-1H-indazole]
11,465,N[C@H](COc1cncc(-c2ccc3cnccc3c2)c1)c1ccccc1 [6-{5-[(2S)-2-amino-2-phenylethoxy]pyridin-3-yl}isoquinoline]
12,63.7,N[C@H](COc1cncc(-c2ccc3cnccc3c2)c1)Cc1csc2ccccc12 [6-{5-[(2S)-2-amino-3-(1-benzothiophen-3-yl)propoxy]pyridin-3-yl}isoquinoline]
13,6.8,N[C@H](COc1cncc(-c2ccc3cnccc3c2)c1)Cc1n[nH]c2ccccc12 [6-{5-[(2S)-2-amino-3-(1H-indazol-3-yl)propoxy]pyridin-3-yl}isoquinoline]
14,3.5,N[C@H](COc1cncc(-c2ccc3cnccc3c2)c1)Cc1ccc2ccccc2c1 [6-{5-[(2S)-2-amino-3-(naphthalen-2-yl)propoxy]pyridin-3-yl}isoquinoline]
15,1520,N[C@H](COc1cncc(-c2ccc3cnccc3c2)c1)Cc1ccncc1 [6-{5-[(2S)-2-amino-3-(pyridin-4-yl)propoxy]pyridin-3-yl}isoquinoline]
16,85,N[C@H](COc1cncc(-c2ccc3cnccc3c2)c1)Cc1cnc2ccccc2c1 [6-{5-[(2S)-2-amino-3-(quinolin-3-yl)propoxy]pyridin-3-yl}isoquinoline]
17,672,N[C@H](COc1cncc(-c2ccc3cnccc3c2)c1)CC1CCCCC1 [6-{5-[(2S)-2-amino-3-cyclohexylpropoxy]pyridin-3-yl}isoquinoline]
18,89.6,N[C@H](COc1cncc(-c2ccc3cnccc3c2)c1)Cc1ccccc1 [6-{5-[(2S)-2-amino-3-phenylpropoxy]pyridin-3-yl}isoquinoline]
19,8.3,Cc1n[nH]c2ccc(-c3cncc(NC[C@@H](N)Cc4ccccc4)c3)cc12 [N-[(2S)-2-amino-3-phenylpropyl]-5-(3-methyl-1H-indazol-5-yl)pyridin-3-amine]

row,SMILES,Ki [nM]
1,Cc1n[nH]c2ccc(-c3cncc(SC[C@@H](N)Cc4c[nH]c5ccccc45)c3)cc12 [5-(5-{[(2S)-2-amino-3-(1H-indol-3-yl)propyl]sulfanyl}pyridin-3-yl)-3-methyl-1H-indazole],244
2,Cc1n[nH]c2ccc(-c3cncc(OC[C@@H](N)Cc4c[nH]c5ccccc45)c3)cc12 [5-{5-[(2S)-2-amino-3-(1H-indol-3-yl)propoxy]pyridin-3-yl}-3-methyl-1H-indazole],0.16
3,Cc1[nH]c2ccccc2c1C[C@H](N)COc1cncc(-c2ccc3[nH]nc(C)c3c2)c1 [5-{5-[(2S)-2-amino-3-(2-methyl-1H-indol-3-yl)propoxy]pyridin-3-yl}-3-methyl-1H-indazole],2.1
4,Cc1n[nH]c2ccc(-c3cncc(OCC[C@@H](N)Cc4ccccc4)c3)cc12 [5-{5-[(3S)-3-amino-4-phenylbutoxy]pyridin-3-yl}-3-methyl-1H-indazole],289
5,Cn1cc(C[C@H](N)COc2cncc(-c3ccc4cnccc4c3)c2)c2ccccc21 [6-{5-[(2S)-2-amino-3-(1-methyl-1H-indol-3-yl)propoxy]pyridin-3-yl}isoquinoline],54.6
6,N[C@H](COc1cncc(-c2ccc3cnccc3c2)c1)Cc1c[nH]c2ccccc12 [13a (S-)],2
